This note sets out measurements from patent US20260137706A1, “METHODS OF TREATING INFLAMMATORY DISEASES” (INTERLINE THERAPEUTICS, INC., priority 2023, published 2026).

The subject of experiment [1] is NF-κB pathway (SEAP) in THP1-Dual cells. The experiment is described as follows: THP-1 Dual cell SEAP assay (L18-MDP stimulated). In kind it is cell-based. The note with it: Homo sapiens, THP1-Dual, read-out: NF-κB THP1 IC50 bin. In short, it runs like this: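 IC50 values derive from non-linear regression of % inhibition, calculated against DMSO/L18-MDP-treated wells after media-only subtraction. NF-κB SEAP activity was read at OD 620-655 nm (QUANTI-Blue, 2 h, 37 °C) from supernatants of THP1-Dual cells. Cells had been compound-treated 30 min before overnight (20-24 h) stimulation with 10 ng/mL final L18-MDP.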

Experiment [2] has as its target T1, GST-RIPK2 fusion protein (human RIPK2, amino acids 1-310) (Homo sapiens, UniProt O43353).
T1 construct: made in house; host or cells: baculovirus infected Sf9 cells
The experiment is described as follows: RIPK2 binding competition assay (TR-FRET, Tracer 199 displacement). The note with it: 10 nM Tracer 199, 1 nM GST-RIPK2, read-out: RIPK2 IC50. Put shortly: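 IC50 derived from the TR-FRET emission ratio (665/620 nm, 337 nm excitation), normalized with no-inhibitor and no-enzyme controls. Incubation 45 min at 22 °C, pH 7.5 Tris buffer, with final 10 nM tracer, 1 nM Sf9-expressed GST-RIPK2 fragment (aa 1-310) and 0.5 nM Tb-labelled anti-GST.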
For orientation: TR-FRET usually uses a lanthanide donor and a delayed reading to cut background.

Experiment [3] concerns the target T2, binding of His-XIAP(BIR2)-avi fusion protein to GST-RIPK2 fusion protein (RIPK2/XIAP) (Homo sapiens, UniProt O43353).
T2 construct: made in house; host or cells: baculovirus infected Sf9 cells
The experiment is described as follows: RIPK2-XIAP binding competition PPI assay (TR-FRET). To be noted: RIPK2/XIAP binding competition PPI assay; for Emax: Amax, read-out: PPI Amax bin; for pIC50: read-out: PPI IC50 bin. Put shortly:
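Compounds (in DMSO, 100-fold stock) incubated 120 min at 23 °C with 1 nM GST-RIPK2 (aa 1-310) and 25 nM His-XIAP(BIR2 aa 152-231)-avi, plus anti-His-XL665 and anti-GST-Tb, in pH 7.5 Tris buffer. Read-out: 665/520 nm emission ratio. Normalized to no-inhibitor (0%) and 50 nM GSK583 (−100%); Amax binned A–D.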

pIC50: −log10 of the molar value. Bounds are passed on as bounds.

T1 sequence (O43353 1-310): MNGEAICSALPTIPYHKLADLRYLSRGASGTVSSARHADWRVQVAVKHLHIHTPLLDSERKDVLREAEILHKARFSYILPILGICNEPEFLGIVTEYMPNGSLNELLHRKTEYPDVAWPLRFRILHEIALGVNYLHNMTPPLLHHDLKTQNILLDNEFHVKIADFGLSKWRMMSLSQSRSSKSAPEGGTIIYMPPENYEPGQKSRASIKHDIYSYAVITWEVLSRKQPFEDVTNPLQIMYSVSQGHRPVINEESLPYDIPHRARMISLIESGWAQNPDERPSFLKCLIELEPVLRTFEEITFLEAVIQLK
T2 sequence (O43353 1-310 limits assumed): as the sequence (O43353 1-310) above

With `COc1cc2ncc(-c3cc(F)c(OC)c4[nH]c(CCO)nc34)n2cc1S(=O)(=O)C(C)(C)C` [Example 184, 2-(4-(6-(tert-butylsulfonyl)-7-methoxyimidazo[1,2-a]pyridin-3-yl)-6-fluoro-7-methoxy-1H-benzo[d]imidazol-2-yl)ethan-1-ol], the pIC50 (as a rule, the negative decadic logarithm of the IC50, by convention in mol/L) in experiment [1] was 6.00 to 6.60; in experiment [2], 8.60 to 9.00; in experiment [3], 8.60 to 9.00. Further, the Emax in experiment [3] is 30 to 55%.
Turning to `C[C@@H](O)CCOc1cc2ncc(-c3cc(F)c(N)nc3F)n2cc1S(=O)(=O)C(C)(C)C` [Example 36, (R)-4-((3-(6-amino-2,5-difluoropyridin-3-yl)-6-(tert-butylsulfonyl)imidazo[1,2-a]pyridin-7-yl)oxy)butan-2-ol], the pIC50 in experiment [1] was 6.60 to 7.30; in experiment [2] it was 8.60 to 9.00; in experiment [3] it was 7.70 to 8.60. Also, in experiment [3], the Emax was greater than 80%.
For `Cn1ccc(COc2cc3ncc(-c4cc(F)c(N)nc4F)n3cc2S(=O)(=O)C(C)(C)C)n1` [Example 25, 5-(6-(tert-butylsulfonyl)-7-((1-methyl-1H-pyrazol-3-yl)methoxy)imidazo[1,2-a]pyridin-3-yl)-3,6-difluoropyridin-2-amine], the pIC50 in experiment [1] was 6.00 to 6.60; in experiment [2], 7.70 to 8.60; in experiment [3], 7.70 to 8.60. Moreover, the Emax in experiment [3] was greater than 80%.
Take `COc1cc2ncc(-c3cc(F)c(OC)c4[nH]c(C)nc34)n2cc1S(=O)(=O)C(C)(C)C` [Example 118, 4-(6-(tert-butylsulfonyl)-7-methoxyimidazo[1,2-a]pyridin-3-yl)-6-fluoro-7-methoxy-2-methyl-1H-benzo[d]imidazole]: the figures for the pIC50 in experiment [1], in experiment [2] and in experiment [3] were 6.60 to 7.30, 8.60 to 9.00 and greater than 9.00, respectively. Besides, the Emax in experiment [3] fell in the range of 55 to 80%.
In the same order, the values of `COc1cc2ncc(-c3ccc4nc(N)sc4c3)n2cc1S(=O)(=O)C(C)(C)C` [Example 95, 6-(6-(tert-butylsulfonyl)-7-methoxyimidazo[1,2-a]pyridin-3-yl)benzo[d]thiazol-2-amine] are less than 6.00, 7.70 to 8.60, less than 7.70 and less than 30%.
On the same counts, the results for `C=CS(=O)(=O)Nc1cc(-c2cnc3cc(OC)c(S(=O)(=O)C(C)(C)C)cn23)cc(OC)c1OC` [Example 144, N-(5-(6-(tert-butylsulfonyl)-7-methoxyimidazo[1,2-a]pyridin-3-yl)-2,3-dimethoxyphenyl)ethenesulfonamide] are greater than 7.30, 8.60 to 9.00, greater than 9.00 and greater than 80%.
`COc1cc2ncc(-c3cc(F)c(OC)c(NS(=O)(=O)c4cnn(C)c4)c3)n2cc1S(C)(=O)=O` [Example 214, N-(3-fluoro-2-methoxy-5-(7-methoxy-6-(methylsulfonyl)imidazo[1,2-a]pyridin-3-yl)phenyl)-1-methyl-1H-pyrazole-4-sulfonamide]: the pIC50 is 6.60 to 7.30 in experiment [1], greater than 9.00 in experiment [2] and greater than 9.00 in experiment [3]. For the same molecule, the Emax in experiment [3] was greater than 80%.
In the case of `CCS(=O)(=O)Nc1cc(-c2cnn3cc(OC)c(N4C(=O)OCC4(C)C)nc23)cc(F)c1OC` [Example 131, N-(5-(5-(4,4-dimethyl-2-oxooxazolidin-3-yl)-6-methoxypyrazolo[1,5-a]pyrimidin-3-yl)-3-fluoro-2-methoxyphenyl)ethanesulfonamide], the pIC50 is 6.00 to 6.60 in experiment [1], 7.70 to 8.60 in experiment [2] and 7.70 to 8.60 in experiment [3]. Moreover, the Emax in experiment [3] was greater than 80%.
Turning to `COc1cn2ncc(-c3cc(F)c(OC)c(NS(=O)(=O)C4(CO)CC4)c3)c2cc1S(=O)(=O)C(C)(C)C` [Example 181, N-(5-(5-(tert-butylsulfonyl)-6-methoxypyrazolo[1,5-a]pyridin-3-yl)-3-fluoro-2-methoxyphenyl)-1-(hydroxymethyl)cyclopropane-1-sulfonamide], the pIC50 was greater than 7.30 in experiment [1], greater than 9.00 in experiment [2] and greater than 9.00 in experiment [3]. In addition, the Emax in experiment [3] is greater than 80%.
In the case of `C[C@@H](CO)COc1cc2ncc(-c3cc(F)c(N)nc3F)n2cc1S(=O)(=O)C(C)(C)C` [Example 175, (S)-3-((3-(6-amino-2,5-difluoropyridin-3-yl)-6-(tert-butylsulfonyl)imidazo[1,2-a]pyridin-7-yl)oxy)-2-methylpropan-1-ol], the results for the negative-log IC50 (pIC50) in experiment [1], in experiment [2] and in experiment [3] were 6.60 to 7.30, 8.60 to 9.00 and 8.60 to 9.00, respectively. The Emax in experiment [3] was greater than 80%.
`OCCCNc1cc(-c2cnc3ccc(C(F)(F)F)cn23)cc(F)n1` [Example 5, 3-((6-fluoro-4-(6-(trifluoromethyl)imidazo[1,2-a]pyridin-3-yl)pyridin-2-yl)amino)propan-1-ol]: the pIC50 in experiment [1] is 6.00 to 6.60; in experiment [2] it was less than 7.70; in experiment [3] it was less than 7.70. Moreover, in experiment [3], the Emax was less than 30%.
In the case of `CCCS(=O)(=O)Nc1cc(-c2cnc3cc(OC)c(S(=O)(=O)C(C)(C)CO)cn23)cc(Cl)c1OC` [Example 129, N-(3-chloro-5-(6-((1-hydroxy-2-methylpropan-2-yl)sulfonyl)-7-methoxyimidazo[1,2-a]pyridin-3-yl)-2-methoxyphenyl)propane-1-sulfonamide], the pIC50 is 6.60 to 7.30 in experiment [1], greater than 9.00 in experiment [2] and greater than 9.00 in experiment [3]. Moreover, the Emax in experiment [3] is greater than 80%.
As for `COc1cc2ncc(-c3ccc(N)nc3F)n2cc1S(=O)(=O)C(C)(C)CO` [Example 58, 2-((3-(6-amino-2-fluoropyridin-3-yl)-7-methoxyimidazo[1,2-a]pyridin-6-yl)sulfonyl)-2-methylpropan-1-ol], the results for the pIC50 in experiment [1], in experiment [2] and in experiment [3] were less than 6.00, less than 7.70 and less than 7.70, respectively. Further, in experiment [3], the Emax is greater than 80%.
As for `COc1c(F)cc(-c2cnc3cc(OC[C@@H](C)CO)c(S(=O)(=O)C(C)(C)C)cn23)cc1NS(C)(=O)=O` [Example 182, (S)-N-(5-(6-(tert-butylsulfonyl)-7-(3-hydroxy-2-methylpropoxy)imidazo[1,2-a]pyridin-3-yl)-3-fluoro-2-methoxyphenyl)methanesulfonamide], the pIC50 was greater than 7.30 in experiment [1], greater than 9.00 in experiment [2] and greater than 9.00 in experiment [3]. The Emax in experiment [3] was in the range of 55 to 80%.
Take `CN(C)CCOc1cc2ncc(-c3cc(F)c(N)nc3F)n2cc1S(=O)(=O)C(C)(C)C` [Example 20, 5-(6-(tert-butylsulfonyl)-7-(2-(dimethylamino)ethoxy)imidazo[1,2-a]pyridin-3-yl)-3,6-difluoropyridin-2-amine]: the pIC50 is less than 6.00 in experiment [1], 7.70 to 8.60 in experiment [2] and less than 7.70 in experiment [3]. In addition, the Emax in experiment [3] was greater than 80%.
In the same order, the values of `COc1cc2ncc(-c3ccc4c(N)noc4c3)n2cc1S(=O)(=O)C(C)(C)C` [Example 93, 6-(6-(tert-butylsulfonyl)-7-methoxyimidazo[1,2-a]pyridin-3-yl)benzo[d]isoxazol-3-amine] are 6.00 to 6.60, 7.70 to 8.60, less than 7.70 and less than 30%.
Take `COc1cc2ncc(-c3cc(F)c(N)nc3F)n2cc1S(=O)(=O)C(C)(C)c1nc(C)no1` [Example 64, 3,6-difluoro-5-(7-methoxy-6-((2-(3-methyl-1,2,4-oxadiazol-5-yl)propan-2-yl)sulfonyl)imidazo[1,2-a]pyridin-3-yl)pyridin-2-amine]: the negative-log IC50 (pIC50) was less than 6.00 in experiment [1], less than 7.70 in experiment [2] and less than 7.70 in experiment [3]. Besides, the Emax in experiment [3] is greater than 80%.
In the case of `CC(C)(C)S(=O)(=O)c1cn2c(-c3cc(F)c(N)nc3F)cnc2cc1CO` [Example 39, (3-(6-amino-2,5-difluoropyridin-3-yl)-6-(tert-butylsulfonyl)imidazo[1,2-a]pyridin-7-yl)methanol], the pIC50 in experiment [1] is less than 6.00; in experiment [2] it was less than 7.70; in experiment [3] it was less than 7.70. For the same molecule, the Emax in experiment [3] was greater than 80%.
In the case of `COc1cc2ncc(-c3cc(F)c(N)nc3F)n2cc1C1(O)CCN(C)CC1` [Example 74, 4-(3-(6-amino-2,5-difluoropyridin-3-yl)-7-methoxyimidazo[1,2-a]pyridin-6-yl)-1-methylpiperidin-4-ol], the pIC50 in experiment [1] was less than 6.00; in experiment [2] it was less than 7.70; in experiment [3] it was less than 7.70. The Emax in experiment [3] was greater than 80%.
For the molecule `COc1c(F)cc(-c2cnc3cc(OCCO)c(S(=O)(=O)C(C)(C)C)cn23)cc1NS(=O)(=O)c1cnn(C)c1` [Example 225, N-(5-(6-(tert-butylsulfonyl)-7-(2-hydroxyethoxy)imidazo[1,2-a]pyridin-3-yl)-3-fluoro-2-methoxyphenyl)-1-methyl-1H-pyrazole-4-sulfonamide], the results for the pIC50 in experiment [1], in experiment [2] and in experiment [3] were greater than 7.30, greater than 9.00 and greater than 9.00, respectively. For the same molecule, in experiment [3], the Emax is greater than 80%.
